{
  "source": "paper PMC6934184",
  "about": "“Selective DNA-PKcs inhibition extends the therapeutic index of localized radiotherapy and chemotherapy” (The Journal of Clinical Investigation, 2019)",
  "molecular_target": "T1, PRKACB (PRKAC beta) (Homo sapiens, UniProt P22694)",
  "T1 construct": "purchased Thermo Fisher Scientific (Life Technologies) SelectScreen",
  "experiment": "SelectScreen LanthaScreen",
  "format": "binding",
  "details": "read-out: % displacement",
  "outline": "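NU5455 was profiled across the SelectScreen Broad panel of kinase activity and binding assays. Z'LYTE reactions such as CSF1R ran at apparent Km ATP, while the Adapta CAMK1 assay used ATP listed as 10. Values are given as percent.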",
  "data": [
    {"smiles": "CN(C(=O)CN1CCOCC1)c1ccc2sc3c(-c4cccc5c(=O)cc(N6CC7CCC(C6)O7)oc45)cccc3c2c1", "note": "[NU5455]", "values": [
      {"measurement": "inhibition at 1 µM", "result": -6.8, "unit": "%"}
    ]}
  ]
}
